The source of these data is PubChem BioAssay (NCI).

Test systems include 786-0 renal; DU-145 prostate; HT29 colon; KM12 colon; RPMI-8226 leukemia; SF-295 CNS; SR leukemia; UACC-257 melanoma; RXF 393 renal.
Common to all, as to test: DTP human tumour cell line panel, 48 h

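The compound was tested at five concentrations on cells cultured in 96-well plates, with a 48-hour exposure period. GI50 = concentration required for 50% inhibition of growth. The concentration for full growth arrest is given as TGI.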

On to `O=C1c2ccccc2C(=O)N1CCc1ncc[nH]1`, for which the TGI with 786-0 renal, in the assay on DU-145 prostate, in the assay on HT29 colon, in the assay with KM12 colon, in the assay on RPMI-8226 leukemia and in the assay with SF-295 CNS was more than 100 µM each time. Further, the TGI in the assay with SR leukemia and in the assay on UACC-257 melanoma was more than 100 µM throughout.
Take `Cc1ccc(-c2nc3nc(-c4ccccc4)nc(N4CCCNCC4)c3o2)cc1`: the GI50 with 786-0 renal was 1.52 µM; with DU-145 prostate it was 1.82 µM; in the assay on HT29 colon it was 1.6 µM; in the assay with KM12 colon it was 1.77 µM; in the assay with RXF 393 renal it was 1.69 µM; in the assay with SF-295 CNS, 1.77 µM. In addition, the GI50 in the assay on SR leukemia was 0.222 µM; with UACC-257 melanoma it was 1.72 µM. The TGI in the assay with 786-0 renal stood at 2.97 µM; with DU-145 prostate, 3.3 µM; with HT29 colon, 3.08 µM; in the assay on KM12 colon, 3.41 µM; in the assay on RXF 393 renal it was 3.32 µM; with SF-295 CNS it was 3.33 µM. For the same compound, the values for the TGI in the assay with SR leukemia and in the assay on UACC-257 melanoma were 0.554 µM and 3.26 µM, respectively.
For the compound `C=C(C[C@](O)(C(=O)/C=C/c1ccc(Cl)cc1)C(=O)OC)c1ccccc1`, the GI50 was 1.66 µM with 786-0 renal; 3.03 µM in the assay with DU-145 prostate; 1.9 µM in the assay with HT29 colon; 1.81 µM in the assay on KM12 colon; 1.66 µM in the assay with RXF 393 renal; 7.96 µM with SF-295 CNS. Further, the GI50 in the assay on SR leukemia is 1.59 µM; with UACC-257 melanoma it was 13.1 µM. Further, the TGI in the assay on 786-0 renal is 3.24 µM; in the assay with DU-145 prostate, 10.7 µM; with HT29 colon, 4.65 µM; in the assay on KM12 colon it was 4.24 µM; with RXF 393 renal, 3.31 µM; in the assay with SF-295 CNS it was 20.7 µM. Moreover, the figures for the TGI in the assay on SR leukemia and with UACC-257 melanoma were 7.7 µM and 25.8 µM, respectively.
Regarding `Cc1ccc(C(=O)NC(C)C)cc1-c1ccc(C(=O)NCC2CC2)cc1`, the GI50 in the assay with 786-0 renal, in the assay with DU-145 prostate, in the assay on HT29 colon, in the assay on KM12 colon, with RPMI-8226 leukemia and in the assay on RXF 393 renal was more than 25 µM in each case. The GI50 in the assay on SF-295 CNS and in the assay with UACC-257 melanoma was more than 25 µM each time. For the same compound, the TGI in the assay with 786-0 renal, with DU-145 prostate, in the assay on HT29 colon, in the assay with KM12 colon, with RPMI-8226 leukemia and with RXF 393 renal was more than 25 µM throughout. Also, the TGI in the assay on SF-295 CNS and in the assay on UACC-257 melanoma was more than 25 µM throughout.
Consider `CCOC1Oc2ccc(C)cc2C(=O)/C1=C\Nc1ccc(C(N)=O)cc1` (centres undefined), for which the GI50 was 16.3 µM in the assay on 786-0 renal; 21.7 µM in the assay on DU-145 prostate; 37.5 µM in the assay on HT29 colon; 16.6 µM in the assay with KM12 colon; 18.6 µM in the assay with RPMI-8226 leukemia; 22.9 µM in the assay with RXF 393 renal. The GI50 is 18.1 µM in the assay on SF-295 CNS and 25.5 µM in the assay on UACC-257 melanoma. Besides, the TGI is 30.4 µM in the assay with 786-0 renal; 60.4 µM with DU-145 prostate; more than 100 µM with HT29 colon; 34.3 µM in the assay on KM12 colon; 90.5 µM in the assay on RPMI-8226 leukemia; 49 µM with RXF 393 renal. Further, the TGI in the assay on SF-295 CNS came to 45.9 µM; with UACC-257 melanoma, 52.3 µM.
Regarding `COc1cc2cc(Oc3ccc(NC(=O)Nc4ccc(Cl)c(C(F)(F)F)c4)cc3)c(C)nc2cc1OCCN1CCOCC1`, the GI50 in the assay on 786-0 renal is 1.89 µM; with DU-145 prostate it was 2.69 µM; in the assay with HT29 colon, 2.57 µM; with KM12 colon it was 1.91 µM; in the assay with RPMI-8226 leukemia, 0.936 µM; in the assay with RXF 393 renal, 1.77 µM. Besides, the figures for the GI50 with SF-295 CNS and with UACC-257 melanoma were 1.19 µM and 1.57 µM, respectively. The TGI in the assay on 786-0 renal came out at 4.15 µM; with DU-145 prostate, 13.8 µM; with HT29 colon, 11.2 µM; in the assay with KM12 colon it was 5.3 µM; with RPMI-8226 leukemia, 4.34 µM; in the assay with RXF 393 renal, 3.99 µM. Moreover, the results for the TGI in the assay on SF-295 CNS and with UACC-257 melanoma were 2.85 µM and 4.55 µM, respectively.
Consider `Cc1cc2c(cc1Cl)SC1=NN(C)S(=O)N1S2(=O)=O` (centres undefined), for which the GI50 with 786-0 renal, in the assay with DU-145 prostate, with HT29 colon, in the assay with KM12 colon, with RPMI-8226 leukemia and with SF-295 CNS was more than 100 µM in each case. The GI50 in the assay on SR leukemia and with UACC-257 melanoma was more than 100 µM throughout. Further, the TGI with 786-0 renal, with DU-145 prostate, in the assay on HT29 colon, in the assay with KM12 colon, in the assay on RPMI-8226 leukemia and in the assay on SF-295 CNS was more than 100 µM each time. The TGI in the assay with SR leukemia and in the assay on UACC-257 melanoma was more than 100 µM in each case.
